Assays:
SpCas9 = SpCas9 (Streptococcus pyogenes serotype M1, UniProt Q99ZW2); assay: Strand displacement assay (SDA) / cumulative activity assay (CAA), SpCas9 primary screen; format: biochemical; settings: Primary Screen (150 min); for Normalized Z score 1: replicate 1; for Normalized Z score 2: replicate 2
Procedure: Screening of inhibitors was via a high throughput pipeline, as depicted in FIG. 29. The first screening is via a strand displacement assay (SDA) for detecting nuclease activity (FIG. 27A, 28A). The Cpf1/Cas12 protein/DNA complex has a different structure from Cas9 and requires optimization of the potential fluorophore attachment sites (Yamano, T et al., Cell, 2016). (FIG. 28A). Next screened compounds are evaluated in an eGFP cell assay, and for eGFP dose. Those compounds are further narrowed via a HiBiT assay and finally evaluated in the surveyor assay. SAR evaluations are performed to arrive at lead compounds for further evaluations and variations. General methodology for the assays is as described in at [0253]-[0301] of U.S. Patent Application 62/831,143 filed Apr. 8, 2019, incorporated herein by reference.
The 3′ end of the displacing single-stranded DNA was labeled with a quencher. Following nuclease cleavage of the substrate, the 3′-labeled quenching DNA strand (present in excess) could outcompete the weakly held 3′ strand to anneal to the 5′ strand. The resulting FRET fluorescence quenching provides an optical readout for nuclease activity (FIG. 62A).
Typically, SpCas9: gRNA (1:1.2 ratio) RNP was pre-formed at 1 μM in Cas9 assay buffer (20 mM Tris-HCl, pH=7.5, 100 mM KCl, 5 mM MgCl2) for 5 min at 4° C. before diluting to 10 nM in Cas9 assay buffer (2× final concentration). 25 μL of the Cas9 2× stock was manually dispensed to a black 384-well plate (Corning 3575) using electronic pipette. […] Following this, pre-annealed Alexa-Fluor 647 labeled substrate and quencher were also diluted to 1 nM and 5 nM in Cas9 assay buffer, respectively (2× stock solution). Next, 25 μL of the substrate/quencher solution was added manually to each well of the Cas9-containing 384-well plates using an electronic pipette and was incubated at 37° C. for 2.5 h. Fluorescent signals were read with the microplate reader set to read Alexa-Fluor 647 fluorescence. Assay was performed similarly with SaCas9 and FnCas12a using the respective enzyme, gRNA, substrate, and quencher oligos. […]

SaCas9 = biological target: T1, SaCas9 (Staphylococcus aureus, UniProt J7RUA5); assay: Strand displacement assay, SaCas9 primary screen; format: biochemical; settings: for Auto Zscore Rep 1 / Auto Zscore Rep 2 / Normalized Zscore Rep 1 / Normalized Zscore Rep 2: SaCas9 primary screen; for Auto Zscore Rep 1 / Normalized Zscore Rep 1: replicate 1; for Auto Zscore Rep 2 / Normalized Zscore Rep 2: replicate 2; for Normalized Zscore Rep 1 / Normalized Zscore Rep 2: weaker potential hits; for 3 sigma Hit: flag 1 = hit at 3 sigma; for 5 sigma Hit: flag 1 = hit at 5 sigma
T1 sequence (J7RUA5 1-1053): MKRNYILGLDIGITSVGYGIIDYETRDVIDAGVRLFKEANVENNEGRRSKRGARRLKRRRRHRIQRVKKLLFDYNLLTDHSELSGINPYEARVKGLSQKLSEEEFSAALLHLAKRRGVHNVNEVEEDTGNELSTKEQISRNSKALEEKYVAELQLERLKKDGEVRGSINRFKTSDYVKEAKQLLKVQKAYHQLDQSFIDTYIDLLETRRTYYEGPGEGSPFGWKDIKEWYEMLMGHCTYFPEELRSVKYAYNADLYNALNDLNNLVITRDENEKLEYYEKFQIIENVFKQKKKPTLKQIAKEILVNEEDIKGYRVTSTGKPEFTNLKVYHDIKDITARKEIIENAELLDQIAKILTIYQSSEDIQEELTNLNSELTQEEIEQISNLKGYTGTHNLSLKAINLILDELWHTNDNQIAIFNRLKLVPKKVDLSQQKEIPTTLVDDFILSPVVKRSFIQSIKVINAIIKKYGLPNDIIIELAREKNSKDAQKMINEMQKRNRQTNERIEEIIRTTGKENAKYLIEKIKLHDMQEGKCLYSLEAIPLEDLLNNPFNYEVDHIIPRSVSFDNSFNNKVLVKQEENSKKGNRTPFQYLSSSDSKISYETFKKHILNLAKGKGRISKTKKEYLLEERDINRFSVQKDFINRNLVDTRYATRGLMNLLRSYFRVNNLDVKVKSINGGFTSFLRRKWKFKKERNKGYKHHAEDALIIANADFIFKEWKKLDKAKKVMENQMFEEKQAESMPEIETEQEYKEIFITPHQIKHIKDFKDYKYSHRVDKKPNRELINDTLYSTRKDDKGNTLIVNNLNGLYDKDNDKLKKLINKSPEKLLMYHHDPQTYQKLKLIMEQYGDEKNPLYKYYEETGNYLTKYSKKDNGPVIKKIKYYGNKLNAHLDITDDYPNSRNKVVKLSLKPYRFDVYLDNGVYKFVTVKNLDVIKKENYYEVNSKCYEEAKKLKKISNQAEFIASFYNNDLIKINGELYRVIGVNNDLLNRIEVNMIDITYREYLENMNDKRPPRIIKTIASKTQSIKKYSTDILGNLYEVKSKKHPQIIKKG
Summary of the method: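 Cas9 RNP (1:1.2 protein:gRNA) pre-formed in 20 mM Tris-HCl pH 7.5, 100 mM KCl, 5 mM MgCl2, used at 10 nM (2× stock) with Alexa-Fluor 647 substrate/quencher at 1 nM/5 nM (2× stock). Reaction ran 2.5 h at 37°C; strand displacement read as fluorescence. Hits called by Z-score: 3–5σ weak, >5σ strong.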

Chain of SpCas9 (Q99ZW2 whole entry): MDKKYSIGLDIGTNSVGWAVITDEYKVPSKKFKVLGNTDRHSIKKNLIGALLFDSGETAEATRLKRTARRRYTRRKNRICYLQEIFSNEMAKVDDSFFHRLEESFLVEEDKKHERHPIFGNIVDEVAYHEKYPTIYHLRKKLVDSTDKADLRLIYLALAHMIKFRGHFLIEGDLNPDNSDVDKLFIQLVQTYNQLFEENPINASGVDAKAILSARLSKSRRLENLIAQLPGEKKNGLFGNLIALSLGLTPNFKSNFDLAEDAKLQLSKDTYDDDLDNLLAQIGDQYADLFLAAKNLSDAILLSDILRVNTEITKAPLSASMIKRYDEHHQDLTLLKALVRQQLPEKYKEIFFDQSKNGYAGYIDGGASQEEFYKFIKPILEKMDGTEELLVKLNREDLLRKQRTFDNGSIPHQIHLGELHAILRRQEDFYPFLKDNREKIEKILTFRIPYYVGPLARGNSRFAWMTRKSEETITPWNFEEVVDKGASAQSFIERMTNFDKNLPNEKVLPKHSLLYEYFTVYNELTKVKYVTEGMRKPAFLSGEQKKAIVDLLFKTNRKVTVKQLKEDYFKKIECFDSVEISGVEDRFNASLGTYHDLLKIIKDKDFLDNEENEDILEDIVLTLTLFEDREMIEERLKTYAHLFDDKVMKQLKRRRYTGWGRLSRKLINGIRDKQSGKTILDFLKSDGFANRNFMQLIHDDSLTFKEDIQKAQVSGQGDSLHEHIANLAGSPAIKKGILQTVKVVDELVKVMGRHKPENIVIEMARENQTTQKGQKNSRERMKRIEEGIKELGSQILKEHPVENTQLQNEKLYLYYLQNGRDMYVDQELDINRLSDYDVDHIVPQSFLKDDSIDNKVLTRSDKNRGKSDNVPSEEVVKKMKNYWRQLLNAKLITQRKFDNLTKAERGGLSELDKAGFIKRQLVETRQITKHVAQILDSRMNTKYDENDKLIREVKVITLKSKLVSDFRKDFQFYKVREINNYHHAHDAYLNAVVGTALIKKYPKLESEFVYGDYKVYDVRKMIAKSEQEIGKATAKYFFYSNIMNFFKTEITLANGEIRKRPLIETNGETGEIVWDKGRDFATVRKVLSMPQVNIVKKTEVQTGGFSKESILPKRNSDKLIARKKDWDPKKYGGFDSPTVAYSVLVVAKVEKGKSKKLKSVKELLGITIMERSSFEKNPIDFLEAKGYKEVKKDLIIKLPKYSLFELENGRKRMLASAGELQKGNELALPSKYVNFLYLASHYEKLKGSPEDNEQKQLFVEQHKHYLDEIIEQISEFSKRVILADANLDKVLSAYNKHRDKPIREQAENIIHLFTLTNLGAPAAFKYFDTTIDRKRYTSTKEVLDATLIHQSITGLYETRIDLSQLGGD

Compound | Average Normalized Z score (SpCas9) | avg z score primary (SpCas9) | Normalized Z score 1 (SpCas9) | Normalized Z score 2 (SpCas9) | Average Normalized Z score (SpCas9; average of replicates) | Auto Zscore Rep 1 (SaCas9) | Auto Zscore Rep 2 (SaCas9) | Normalized Zscore Rep 1 (SaCas9) | Normalized Zscore Rep 2 (SaCas9) | 3 sigma Hit (SaCas9) | 5 sigma Hit (SaCas9)
COc1ccc(C(=O)Oc2cc(-c3ccc(OC)c(OC)c3)cc(=O)c3c(C)oc(C)c23)cc1 [Compound D132-0053] | 0.20 | 3.32 | 0.21 | 0.19 |  |  |  |  |  |  | 
CCCCC(=O)Nc1ccc(N2CCC(C(N)=O)(N3CCCCC3)CC2)c(C(=O)O)c1 [Compound G889-0171] | 0.07 | 3.38 | 0.07 | 0.07 |  |  |  |  |  |  | 
CN1CCN(c2ccc(CNC(=O)Cn3ccc4c(SCc5ccccc5)nccc43)cc2)CC1 [Compound M056-0617] |  | 4.82 | 0.05 | 0.07 | 0.06 |  |  |  |  |  | 
O=C([O-])C(O)Cc1ccc(O)c(O)c1.[Na+] (centres unmarked) [Compound S2401] |  | 4.93 | 0.22 | 0.29 | 0.25 |  |  |  |  |  | 
Cl.NC(CO)C(=O)NNCc1ccc(O)c(O)c1O (centres unmarked) [Compound S2453] |  | 5.09 | 0.21 | 0.32 | 0.26 |  |  |  |  |  | 
CCCN(CCC)C1=CC(=O)C(C)=C(C)C1=O [Compound T0502-3042] |  | 4.92 | 0.32 | 0.30 | 0.31 |  |  |  |  |  | 
COc1ccc(-n2c(N(C(C)=O)C(C)=O)c(C#N)c3nc4ccccc4nc32)cc1 [Compound T0503-6223] |  | 14.21 | 0.16 | 0.16 | 0.16 |  |  |  |  |  | 
O=C(N/N=C/c1ccc(O)c(O)c1O)c1cccc(S(=O)(=O)Nc2ccccc2Cl)c1 [Compound T0506-5702] |  | 4.48 | 0.07 | 0.07 | 0.07 |  |  |  |  |  | 
Cc1ccc(C(=O)n2ncn(C)c2=S)cc1 [Compound T0510-3476] |  | 28.56 | 0.39 | 0.42 | 0.41 |  |  |  |  |  | 
Cc1cccc(NC(=O)C2CCCN(c3ccc(-c4ccccc4)nn3)C2)c1 (centres unmarked) [Cpd F305-0007] |  |  |  |  |  | −0.4204 | −0.1511 | 0.1614 | 0.1636 | 1 | 
COc1ccc(-c2nc(N)s[n+]2-c2ccccc2)cc1 [Cpd T0501-2049] |  |  |  |  |  | 0.5613 | 0.7691 | 0.6053 | 0.6033 | 1 | 1
C=C1C(C(=O)NCc2ccco2)C1C(=O)NCc1ccco1 (centres unmarked) [Cpd T0501-2919] |  |  |  |  |  | 0.7411 | 0.4717 | 0.507 | 0.5892 | 1 | 1
O=C1c2cccc3cccc(c23)N1S(=O)(=O)c1cccs1 [Cpd T0503-3218] |  |  |  |  |  | 1.379 | 1.343 | 0.1426 | 0.123 | 1 | 
Cc1ccc(C)c(SCC(=O)NC(C)C(c2ccccc2)N2CCOCC2)c1 (centres unmarked) [Cpd T0507-0044] |  |  |  |  |  | 1.662 | −1.14 | 0.2923 | 0.2417 | 1 | 1
O=C(CSc1ccc2ccccc2c1)N1CCN(c2ccc(O)cc2)CC1 [Cpd T0508-7813] |  |  |  |  |  | −2.33 | −1.326 | 0.1931 | 0.165 | 1 | 
O=C(CSc1ccc2ccccc2c1)NCCc1ccc(O)c(O)c1 [Cpd T0509-3636] |  |  |  |  |  | 0.8861 | 0.3048 | 0.4351 | 0.3562 | 1 | 1
Cc1ccc(C)n1CCN1CCN(S(=O)(=O)c2ccccc2)CC1 [Cpd T0510-3387] |  |  |  |  |  | 1.126 | −0.9366 | 0.1436 | 0.1737 | 1 | 
O=C(CSc1nnc2ccccn12)N1CCc2ccccc2C1 [Cpd T0512-2617] |  |  |  |  |  | −1.3165 | 0.881 | 0.3066 | 0.3358 | 1 | 1
Cc1cc(Nc2ccccc2)n(-c2ccccc2C(=O)O)n1 [Cpd T0513-3165] |  |  |  |  |  | 0.05393 | −1.233 | 0.4933 | 0.4517 | 1 | 1
O=C1CC(NC(=O)c2ccc(Cl)cc2)C(=O)N1 (centres unmarked) [Cpd T0513-4457] |  |  |  |  |  | 0.257 | 0.3998 | 0.4361 | 0.4132 | 1 | 1

From patent US20240115557A1, “INHIBITORS OF RNA-GUIDED NUCLEASES AND USES THEREOF” (The Brigham and Women's Hospital, Inc., priority 2022, published 2024)
